Data: ChEMBL document CHEMBL1132881, “First pharmacophoric hypothesis for 5-HT7 antagonism” (Bioorg Med Chem Lett, 2000)

Molecular target: T1, 5-hydroxytryptamine receptor 7 (Rattus norvegicus, UniProt P32305)
Assay: Binding affinity towards 5-hydroxytryptamine 7 receptor

T1 sequence (P32305 whole entry): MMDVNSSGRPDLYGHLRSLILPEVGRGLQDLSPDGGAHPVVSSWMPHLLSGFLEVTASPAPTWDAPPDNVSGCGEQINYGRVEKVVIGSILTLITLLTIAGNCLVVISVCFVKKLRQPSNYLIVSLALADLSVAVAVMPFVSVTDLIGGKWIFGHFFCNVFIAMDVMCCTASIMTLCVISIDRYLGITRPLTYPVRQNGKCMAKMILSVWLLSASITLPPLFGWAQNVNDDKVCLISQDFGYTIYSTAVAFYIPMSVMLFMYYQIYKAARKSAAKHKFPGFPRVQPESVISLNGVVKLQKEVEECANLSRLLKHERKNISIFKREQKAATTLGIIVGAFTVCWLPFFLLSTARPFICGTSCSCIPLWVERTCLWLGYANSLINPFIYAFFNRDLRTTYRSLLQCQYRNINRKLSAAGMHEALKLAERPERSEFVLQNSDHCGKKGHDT

First: Cc1cccc(S(=O)(=O)N2CCC[C@@H]2CCN2CCC(C)CC2)c1 [SB-258741]
Second: CCN(CC)C(=O)[C@@H]1C=C2c3cccc4[nH]c(Br)c(c34)C[C@H]2N(C)C1
The Ki of the first is 3.2-fold lower: 3.16 nM for the first, 10 nM for the second. The first binds more tightly here.

First: Cc1nc2sccn2c(=O)c1CCN1CCC(=C(c2ccc(F)cc2)c2ccc(F)cc2)CC1 [RITANSERIN]
Second: CN1C[C@H](CNC(=O)OCc2ccccc2)C[C@@H]2c3cccc4c3c(cn4C)C[C@H]21 [METERGOLINE]
The Ki of the first is 2.5-fold higher: 15.8 nM for the first, 6.31 nM for the second.

Molecular target: T2, 5-hydroxytryptamine receptor 7 (Homo sapiens, UniProt P34969)
Assay: Binding affinity towards cloned human 5-hydroxytryptamine 7 receptor in HEK 293 cells
Format: cell-based, HEK293

T2 sequence (P34969 whole entry): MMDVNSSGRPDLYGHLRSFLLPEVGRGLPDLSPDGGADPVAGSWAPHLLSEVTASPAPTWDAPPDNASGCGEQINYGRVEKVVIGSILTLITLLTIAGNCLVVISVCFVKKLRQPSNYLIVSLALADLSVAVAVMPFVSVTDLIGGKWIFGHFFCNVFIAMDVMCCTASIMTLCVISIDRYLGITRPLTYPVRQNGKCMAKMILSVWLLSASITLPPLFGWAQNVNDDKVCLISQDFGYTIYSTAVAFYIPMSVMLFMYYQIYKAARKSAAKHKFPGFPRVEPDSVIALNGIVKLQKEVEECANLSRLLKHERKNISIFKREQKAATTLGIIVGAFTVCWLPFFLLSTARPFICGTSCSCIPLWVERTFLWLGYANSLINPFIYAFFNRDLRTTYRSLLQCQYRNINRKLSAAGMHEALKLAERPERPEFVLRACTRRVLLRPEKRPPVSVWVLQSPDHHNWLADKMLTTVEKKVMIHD

C[C@H]1CCCN(CC[C@H](C)N(C)S(=O)(=O)c2cccc3ccccc23)C1 and O=C1Nc2cccc3c2C1(CCCCN1CCN(C2CCCCC2)CC1)CCC3 (stereo not drawn) are the same in Ki: 10000 nM for the first, 10000 nM for the second.

Molecular target: T2, 5-hydroxytryptamine receptor 7
Assay: Binding affinity towards human recombinant 5-hydroxytryptamine 7 receptor using [3H]5-CT as radioligand

Compared with O=C1Nc2cccc3c2C1(CCCN1CCN(c2ccccc2)CC1)CCC3 (stereo not drawn), O=C1Nc2cccc3c2C1(CCCCN1CCN(c2ccccc2)CC1)CCC3 (stereo not drawn) is 1.6-fold lower in Ki: 5.01 nM for the first, 3.16 nM for the second. The second binds more tightly here.

N#Cc1ccccc1N1CCN(CCCCC23CCCc4cccc(c42)NC3=O)CC1 (stereo not drawn) and COc1ccccc1N1CCN(CCCCC23CCCc4cccc(c42)NC3=O)CC1 (stereo not drawn) are within 1.5-fold of each other in Ki: 3.98 nM for the first, 5.01 nM for the second.

First: O=C1Nc2cccc3c2C1(CCN1CCN(c2ccccc2)CC1)CCC3 (stereo not drawn)
Second: O=C1Nc2cccc3c2C1(CCCCN1CCN(c2ccccn2)CC1)CCC3 (stereo not drawn)
The Ki of the first is 50-fold higher: 100 nM for the first, 2 nM for the second. The second binds more tightly here.

For O=C1Nc2cccc3c2C1(CCCCN1CCC(c2ccccc2)CC1)CCC3 (stereo not drawn), the Ki was 2 nM.

Molecular target: T1, 5-hydroxytryptamine receptor 7
Assay: Binding affinity against 5-hydroxytryptamine 7 receptor using [3H]-5-CT in rat hypothalamus membranes
Format: cell membranes, Membrane

Compared with COc1ccccc1N1CCN(CCCCN2C(=O)c3cccc4cccc2c34)CC1, COc1ccccc1N1CCN(CCCCCN2C(=O)c3cccc4cccc2c34)CC1 is 1.6-fold higher in Ki: 63.1 nM for the first, 100 nM for the second.

COc1ccccc1N1CCN(CCCCCCN2c3cccc4cccc(c34)S2(=O)=O)CC1 and COc1ccccc1N1CCN(CCCCCN2c3cccc4cccc(c34)S2(=O)=O)CC1 are within 1.5-fold of each other in Ki: 200 nM for the first, 251 nM for the second.

CN1CCN(CCCCN2c3cccc4cccc(c34)S2(=O)=O)CC1 and CC1CCN(CCCCN2c3cccc4cccc(c34)S2(=O)=O)CC1 cannot be ordered by Ki: > 10000 nM for the first, > 10000 nM for the second.

O=S1(=O)c2cccc3cccc(c23)N1CCCCCN1CCN(c2ccccc2)CC1 and COc1ccccc1N1CCN(CCCCN2c3cccc4cccc(c34)S2(=O)=O)CC1 are the same in Ki: 200 nM for the first, 200 nM for the second.

O=C1c2cccc3cccc(c23)N1CCCCN1CCCCC1 and CN1CCN(CCCCN2C(=O)c3cccc4cccc2c34)CC1 cannot be ordered by Ki: > 10000 nM for the first, > 10000 nM for the second.

O=S1(=O)c2cccc3cccc(c23)N1CCCCN1CCCCC1 and CC1CCN(CCCCCN2c3cccc4cccc(c34)S2(=O)=O)CC1 cannot be ordered by Ki: > 10000 nM for the first, > 10000 nM for the second.

First: O=C1c2cccc3cccc(c23)N1CCCCCN1CCN(c2ccccc2)CC1 [UCM-5600]
Second: CC1CCN(CCCCN2C(=O)c3cccc4cccc2c34)CC1
The Ki of the first is lower: 79.4 nM for the first, > 1000 nM for the second.

With CC(C)C1CCN(CCCCN2C(=O)c3cccc4cccc2c34)CC1 the Ki was 200 nM.
